Experimental data from US11730746B2, “17beta-heterocyclyl-digitalis like compounds for the treatment of heart failure” (priority 2018, dated 2023).

Columns and labels:
[1] = molecular target: T1, dog renal Na,K-ATPase (Canis lupus familiaris, UniProt P50997); assay: Inhibition of dog renal Na,K-ATPase activity (32P-ATP release); format: biochemical
T1 construct: incubated with 0.3 μg of purified dog kidney enzyme; from tissue; host or cells: dog kidney outer medulla
Description: Kidneys were sliced and the outer medulla was dissected, pooled and suspended (1 g/10 ml) in a sucrose-histidine solution, containing 250 mM sucrose, 30 mM histidine and 5 mM EDTA, pH 7.2 and homogenized. […] The pellet was suspended in the sucrose-histidine buffer and incubated for 20 min with a sodium-dodecyl-sulphate (SDS) solution dissolved in a gradient buffer, containing 25 mM imidazole and 1 mM EDTA, pH 7.5. […] The pellet was suspended in the gradient buffer.
Increasing concentrations of the standard ouabain, or tested compound, were incubated with 0.3 μg of purified dog kidney enzyme for 10 min at 37° C. in 120 μl final volume of a medium, containing 140 mM NaCl, 3 mM MgCl2, 50 mM Hepes-Tris, 3 mM ATP, pH 7.5. […] The inhibitory activity was expressed as percent of the control samples carried out in the absence of ouabain or tested compound.

[2] = test system: guinea pig; assay: Haemodynamics: inotropic and lethal dose in guinea pig; format: in vivo
Description: Guinea-pigs (400-450 g) were anaesthetized with urethane (1.5 g/kg ip). A microtip pressure transducer was introduced into the left ventricle through the right carotid artery to measure ventricular pressure (LVP); the transducer was coupled with a transducer amplifier. Recordings were fed to a polygraph and analyzed. A polythene cannula was inserted into a jugular vein for drug infusion. After a stabilization period, the test substance was injected at the rate of 0.16 ml/min for 90 min (Micheletti R et al. J Pharmacol Exp Ther 2002; 303:592-600).
The following parameters were obtained: heart rate (HR), left ventricular pressure (LVP), maximal velocity of pressure rise (+dP/dtmax) and decay (−dP/dtmax), ECG. For inotropy, the time elapsed until +dP/dtmax increased by 80% was identified in order to determine the ED80 (dose increasing basal +dP/dtmax by 80%). The time to the maximum increase in +dP/dtmax was also identified to determine the maximum effective dose, EDmax. Lusitropy was characterized by the dose inducing the maximum decrease in −dP/dtmax, (EDmax). As indexes of toxicity, the dose administered until the onset of arrhythmias and the dose inducing death (LD) were calculated. The safety ratio for the tested compound was also calculated as the ratio between LD and ED80.

[3] = test system: STZ diabetic rats; assay: Haemodynamics in streptozotocin diabetic rats (echocardiography); format: in vivo, rat; conditions: 20 mg/kg os, after treatment, mean ± SD, n = 12
Description: Sprague Dawley male rats (150-175 g) were made diabetic by a single injection into the tail vein of a solution of streptozotocin (STZ, 50 mg/kg, Sigma-Aldrich), freshly prepared in 0.1 M sodium citrate buffer, pH 4.5. Control rats received citrate buffer. Fasting glycaemia was measured after 1 week and rats with values >400 mg/dl were considered diabetic.
Eight-nine weeks after STZ injection, rats were submitted to transthoracic echocardiographic and Doppler evaluation performed under pentobarbital anesthesia. Two-dimensionally guided M-mode recordings were used to obtain short-axis measurements of left ventricular end-diastolic diameter (LVEDD), left ventricular end-systolic diameter (LVESD), posterior (PW) and septal (SW) diastolic wall thickness according to the American Society of Echocardiography guidelines (Lang R M et al. Eur J Echocardiography 2006; 7:79-108). Fractional shortening was calculated as FS=(LVEDD-LVESD)/LVEDD. Relative wall thickness was calculated as PWTd+IVSTd/LVEDD.
Mitral inflow was measured by pulsed Doppler at the tips of mitral leaflets from an apical 4-chamber view to obtain early and late filling velocities (E, A) and deceleration time of early filling velocity (DT). The deceleration slope was calculated as E/DT ratio. The mitral deceleration index was calculated as DT/E ratio.
Tissue Doppler Imaging (TDI) was evaluated from the apical 4-chamber view to record septal mitral annular movements, i.e., peak myocardial systolic (s′) and early and late diastolic velocity (e′ and a′).
Compound CVie 101 was orally administered to STZ injected rats at the dose of 20 mg/kg and echocardiographic parameters were measured after 1 h.

[4] = molecular target: T2, SERCA2a (Canis lupus familiaris, UniProt O46674); conditions: literature (Rocchetti 2005; Ferrandi 2013); cited from earlier work
T2 construct: pre-incubated with 2 μg of microsomes; from tissue; host or cells: dog heart left ventricle, SR microsomes

[5] = test system: mouse (Albino Swiss CD-1); conditions: i.v., data from literature; cited from earlier work
[6] = literature (Packer 2016, 2018); cited from earlier work

T2 sequence (O46674 whole entry): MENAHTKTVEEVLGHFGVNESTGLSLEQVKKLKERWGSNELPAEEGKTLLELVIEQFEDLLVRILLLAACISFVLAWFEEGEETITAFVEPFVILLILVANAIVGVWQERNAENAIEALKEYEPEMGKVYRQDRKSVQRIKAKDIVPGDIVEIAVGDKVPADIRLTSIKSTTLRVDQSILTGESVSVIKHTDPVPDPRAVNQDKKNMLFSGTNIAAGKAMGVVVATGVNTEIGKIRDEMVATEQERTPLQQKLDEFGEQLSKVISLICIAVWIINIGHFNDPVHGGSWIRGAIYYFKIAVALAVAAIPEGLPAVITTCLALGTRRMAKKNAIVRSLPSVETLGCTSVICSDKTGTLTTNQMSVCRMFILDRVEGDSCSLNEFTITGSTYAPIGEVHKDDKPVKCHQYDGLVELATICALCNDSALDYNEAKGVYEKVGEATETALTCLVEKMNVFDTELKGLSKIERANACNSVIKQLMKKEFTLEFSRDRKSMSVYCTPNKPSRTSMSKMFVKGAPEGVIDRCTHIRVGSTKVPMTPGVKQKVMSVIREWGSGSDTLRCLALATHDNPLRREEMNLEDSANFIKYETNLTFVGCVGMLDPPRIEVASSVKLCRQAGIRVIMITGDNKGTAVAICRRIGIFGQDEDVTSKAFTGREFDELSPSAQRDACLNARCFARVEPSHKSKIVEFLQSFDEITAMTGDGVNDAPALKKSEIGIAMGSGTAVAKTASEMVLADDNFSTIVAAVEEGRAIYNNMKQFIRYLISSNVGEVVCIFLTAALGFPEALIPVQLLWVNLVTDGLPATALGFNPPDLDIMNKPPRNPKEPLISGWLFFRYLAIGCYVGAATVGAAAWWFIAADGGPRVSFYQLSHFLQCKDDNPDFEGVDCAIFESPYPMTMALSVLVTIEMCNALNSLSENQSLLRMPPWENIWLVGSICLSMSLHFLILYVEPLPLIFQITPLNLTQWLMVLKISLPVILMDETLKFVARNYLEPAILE

C[C@H]1O[C@@H](O[C@H]2[C@@H](O)C[C@H](O[C@H]3[C@@H](O)C[C@H](O[C@H]4CC[C@@]5(C)[C@H](CC[C@@H]6[C@@H]5C[C@@H](O)[C@]5(C)[C@@H](C7=CC(=O)OC7)CC[C@]65O)C4)O[C@@H]3C)O[C@@H]2C)C[C@H](O)[C@@H]1O [Digoxin, reference compound]
IC50 [1]: 300 nM | ED80 ([2]; guinea pig, in vivo): 0.69 mg/kg | Lethal dose ([2]; i.v. infusion […]): 1.20 mg/kg | A (late filling velocity of mitral inflow) [3]: 0.92 ± 0.1 m/s | A′ (TDI late relaxation velocity) [3]: 35.8 ± 5 cm/s | CO (cardiac output) [3]: 246.8 ± 72 mL/min | DT (deceleration time of E wave) [3]: 39.2 ± 9.34 ms | E (early filling velocity of mitral inflow) [3]: 1.02 ± 0.13 m/s | E/DT (deceleration slope) [3]: 27.9 ± 9.8 m/s2 | E′ (TDI early relaxation velocity) [3]: 23.7 ± 1.35 cm/s | FS (fractional shortening) [3]: 47.2 ± 3.24 % | HR (heart rate) [3]: 308 ± 39 beat/min | SV (stroke volume) [3]: 0.80 ± 0.19 ml/beat | S′ (TDI contraction velocity) [3]: 26.7 ± 2.77 cm/s | SERCA2a activity [4]: failed to stimulate | LD50 [5]: 7.7 mg/kg | serum concentration ranges at which digoxin displays its beneficial effects [6]: 0.5 to 0.7 ng/mL | serum threshold level above which increased risk of death, mainly due to arrhythmias, has been observed [6]: 0.9 ng/mL
